Source: patent US4554273A, “2-Amino-5-phenyl-1,3-benzodiazepines” (Lipha Lyonnaise Industrielle Pharmaceutique, priority 1983, dated 1985)
Counter-ions that a name gives are not always drawn.

System: Reserpine ptosis
Test: inhibition of reserpine ptosis (oral)
Format: in vivo
Conditions: Mus musculus, 1.5 h, Swiss mice, reserpine 5 mg/kg intraperitoneal, compounds orally at the same time, ptosis marked 1 h 30 min later
Experimental: The mood-modifying activity of the compounds is evaluated by standardized tests such as inhibition of known reserpine ptosis. Reserpine ptosis may be induced by methods such as those described in the literature. For example, Rubin, et al, [J. Pharmacol, Exp. Ther. 120: 125(1957)] induced ptosis in Swiss mice by intraperitoneal injection of 5 mg/kg of reserpine. This ptosis was marked 1 h 30 min later. Compounds to be tested for reserpine inhibition were administered orally at the same time as the reserpine was injected.

Q: For NC1=Nc2ccccc2C(c2ccccc2)CN1 (centres unmarked) [Example 1, 2-Amino-5-phenyl-4,5-3H-dihydro-1,3-benzodiazepine hydrochloride], which ED50 is on record?
A: 18 mg/kg

Q: For Cc1ccc(C2CNC(N)=Nc3ccc(C)cc32)cc1 (centres unmarked) [Example 8, 2-Amino-7-methyl-5-(4-methylphenyl)-4,5-3H-dihydro-1,3-benzodiazepine hydrochloride], which ED50 is on record?
A: 3 mg/kg

Q: For Cc1ccc(C2CNC(N)=Nc3ccccc32)cc1 (centres unmarked) [Example 3, 2-Amino-5-(4-methylphenyl)-4,5-3H-hydro-1,3-benzodiazepine hydrochloride], which ED50 is on record?
A: 10 mg/kg

Q: Which ED50 does the source give for CN(C)CCC=C1c2ccccc2CCc2ccccc21 [AMITRIPTYLINE, 5-(3-dimethylaminopropylidene)dibenzo[a,d]-1,4-cycloheptadiene hydrochloride, reference compound] here?
A: 10 mg/kg

Q: Which ED50 does the source give for NC1=Nc2ccccc2C(c2ccc(Cl)cc2)CN1 (centres unmarked) [Example 4, 2-Amino-5-(4-chlorophenyl)-4,5-3H-dihydro-1,3-benzodiazepine hydrochloride] here?
A: 11 mg/kg

Q: With CCOC(=O)NC1=Nc2ccccc2C(c2ccccc2)CN1 (centres unmarked) [Example 48, 2-amino-(5-Phenyl-4,5-3H-dihydro-1,3-benzodiazepin)yl ethyl carbamate] as the compound, how does the ED50 read?
A: 13 mg/kg

System: not listed separately
Test: lethal dose (LD50) determined orally in Swiss mice
Conditions: mouse, in vivo, oral

Q: Which LD50 does the source give for NC1=Nc2ccccc2C(c2ccccc2)CN1 (centres unmarked) [Example 1, 2-Amino-5-phenyl-4,5-3H-dihydro-1,3-benzodiazepine hydrochloride] here?
A: 600 mg/kg

Q: With Cc1ccc(C2CNC(N)=Nc3ccc(C)cc32)cc1 (centres unmarked) [Example 8, 2-Amino-7-methyl-5-(4-methylphenyl)-4,5-3H-dihydro-1,3-benzodiazepine hydrochloride] as the compound, how does the LD50 read?
A: 2400 mg/kg

Q: Which LD50 does the source give for Cc1ccc(C2CNC(N)=Nc3ccccc32)cc1 (centres unmarked) [Example 3, 2-Amino-5-(4-methylphenyl)-4,5-3H-hydro-1,3-benzodiazepine hydrochloride] here?
A: 330 mg/kg

Q: Which LD50 does the source give for NC1=Nc2ccccc2C(c2ccc(Cl)cc2)CN1 (centres unmarked) [Example 4, 2-Amino-5-(4-chlorophenyl)-4,5-3H-dihydro-1,3-benzodiazepine hydrochloride] here?
A: 1200 mg/kg

Q: For CCOC(=O)NC1=Nc2ccccc2C(c2ccccc2)CN1 (centres unmarked) [Example 48, 2-amino-(5-Phenyl-4,5-3H-dihydro-1,3-benzodiazepin)yl ethyl carbamate], which LD50 is on record?
A: > 3200 mg/kg
